The source of these data is patent publication US12295925B2, “Treatment of neurofibromatosis type 1 (NF1) associated plexiform neurofibromas (PN) in pediatric patients with mirdametinib” (SpringWorks Therapeutics, Inc., priority 2022, dated 2025).

The test system of this series is patients >2 and <25 years with brain cancer. Nature of the series: Phase I/II trial of single agent mirdametinib in children, adolescents and young adults with brain cancer. Format: in vivo, human. The method, then:
Example 1: Phase I/II Evaluation of Single Agent Mirdametinib, a Brain-Penetrant MEK1/2 Inhibitor, for the Treatment of Children, Adolescents, and Young Adults with Brain Cancer A multi-arm phase I/II trial of mirdametinib is to be conducted in patients>2 and <25 years with brain cancer. Phase I requires participants have no prior exposure to MEK inhibitors and recurrent/progressive disease with biopsy-proven evidence of MAPK pathway activation. Three escalating dose levels (2 mg/m^2/dose BID, 2.5 mg/m^2/dose BID and 3 mg/m^2/dose BID) are planned using a rolling 6 design. The median age enrolled in the study is 10 years old (3-21).

Take `O=C(NOC[C@H](O)CO)c1ccc(F)c(F)c1Nc1ccc(I)cc1F` (single isomer, unassigned) [mirdametinib]: where the note is “all three dose levels (2, 2.5 and 3 mg/m^2/dose BID), rolling 6 design, patients with brain cancer, median age 10 years”, the dose-limiting toxicities entry is reported as “No dose-limiting toxicities”. In addition, the “clinical activity (overall assessment)” value (dosed continuously in patients with brain cancer) is on record as “clinically promising”.
